Measured values as given in the supplement of paper PMC10307832.

Columns and labels:
Assay in all cases: relative viability (nuclei count vs DMSO), 5 days (fraction); higher = more cells survive
[1] = compound: N#CC[C@H](C1CCCC1)n1cc(-c2ncnc3[nH]ccc23)cn1 [Ruxolitinib] + C[C@@H](Oc1cc(-c2cnn(C3CCNCC3)c2)cnc1N)c1c(Cl)ccc(F)c1Cl [Crizotinib] (partner 1 µM)
Procedure, shortened: (§1)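 One day after seeding in 1536-well plates, lung cancer cell lines were dosed by pin tool. Dosing was either single-drug or a fixed anchor-drug dose plus five library-drug doses (not always all listed) in √10 steps. After 5 days, nuclei were stained in one fix-and-stain step and counted on 4× images, and relative viability is the nuclei count of treated wells over that of vehicle wells, given as the median of duplicate plates.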

[2] = compound: N#CC[C@H](C1CCCC1)n1cc(-c2ncnc3[nH]ccc23)cn1 [Ruxolitinib] + COc1cccc2cc(-c3nc([C@H]4CC[C@H](C(=O)O)CC4)n4ncnc(N)c34)[nH]c12 [OSI-027] (partner 0.5 µM)
Procedure, shortened: as §1

[3] = compound: CS(=O)(=O)c1ccc(-c2cnc(N)c(C(=O)Nc3ccccc3)n2)cc1 [VE-821] + O=C(CCCCCCC(=O)Nc1ccccc1)NO [Vorinostat] (partner 1 µM)
Procedure, shortened: as §1

| Cell Line | relative viability ([1]; first compound 0.08 µM) | relative viability ([1]; first compound 0.253 µM) | relative viability ([1]; first compound 0.8 µM) | relative viability ([1]; first compound 2.53 µM) | relative viability ([1]; first compound 8 µM) | relative viability ([2]; first compound 0.08 µM) | relative viability ([2]; first compound 0.253 µM) | relative viability ([2]; first compound 0.8 µM) | relative viability ([2]; first compound 2.53 µM) | relative viability ([2]; first compound 8 µM) | relative viability ([3]; first compound 0.08 µM) | relative viability ([3]; first compound 0.253 µM) | relative viability ([3]; first compound 0.8 µM) | relative viability ([3]; first compound 2.53 µM) | relative viability ([3]; first compound 8 µM) |
| --- | --- | --- | --- | --- | --- | --- | --- | --- | --- | --- | --- | --- | --- | --- | --- |
| SW 1573 | 0.887 | 0.75 | 0.969 | 0.791 | 0.733 | 0.607 | 0.482 | 0.815 | 0.386 | 0.573 | 0.745 | 0.708 | 0.83 | 0.954 | 0.532 |
| NCI-H1355 | 1.08 | 1.01 | 1.06 | 0.839 | 0.907 | 0.382 | 0.328 | 0.388 | 0.373 | 0.318 | 0.819 | 0.61 | 0.663 | 0.72 | 0.57 |
| NCI-H460 | 0.985 | 1.02 | 1.01 | 0.803 | 0.447 | 0.686 | 0.575 | 0.721 | 0.583 | 0.615 | 1.02 | 0.619 | 0.528 | 0.111 | 0.0517 |
| NCI-H2126 | 0.996 | 1.11 | 1.02 | 1.03 | 0.984 | 0.758 | 0.664 | 0.74 | 0.794 | 0.689 | 0.722 | 0.78 | 0.749 | 0.727 | 0.497 |
| LCLC-103H | 1.04 | 1.15 | 1.2 | 1.09 | 0.988 | 0.497 | 0.394 | 0.48 | 0.45 | 0.488 | 0.863 | 0.772 | 0.783 | 0.834 | 0.592 |
| COR-L 105 | 0.789 | 0.634 | 0.853 | 0.444 | 0.625 | 0.535 | 0.536 | 0.705 | 0.667 | 0.531 | 0.865 | 0.883 | 0.638 | 0.718 | 0.56 |
| H3255 |  | 0.752 | 1.12 | 0.806 | 0.849 | 0.371 | 0.492 | 0.624 | 0.591 | 0.585 | 0.953 | 0.742 | 0.915 | 0.772 | 0.805 |
| NCI-H441 | 0.682 | 0.585 | 0.847 | 0.724 | 0.555 | 0.675 | 0.471 | 0.836 | 0.56 | 0.521 | 0.833 | 0.765 | 0.951 | 0.921 | 0.435 |
| NCI-H2347 | 0.665 | 0.586 | 0.764 | 0.67 | 0.651 | 0.438 | 0.377 | 0.451 | 0.397 | 0.486 | 0.531 | 0.555 | 0.465 | 0.818 | 0.558 |
| CAL-12T | 0.914 | 0.586 | 0.81 | 0.481 | 0.576 | 0.598 | 0.623 | 0.812 | 0.524 | 0.442 | 0.931 | 0.762 | 0.826 | 0.833 | 0.686 |
| HCC-827 |  | 0.878 | 0.734 | 0.856 | 0.826 |  | 0.516 | 0.586 | 0.537 | 0.714 | 0.728 | 0.779 | 0.856 | 0.837 | 0.722 |
| NCI-H520 |  | 0.714 | 0.964 | 0.708 | 0.645 | 0.317 |  | 0.278 | 0.239 | 0.326 | 0.614 | 0.779 | 0.719 | 0.603 | 0.353 |
| A-427 | 0.843 | 1.07 | 0.867 | 0.66 | 0.789 | 0.434 | 0.465 | 0.566 | 0.364 | 0.439 | 0.872 | 0.795 | 0.83 | 0.806 | 0.51 |
| NCI-H650 |  | 0.77 | 0.846 | 0.644 | 0.54 |  | 0.497 | 0.618 | 0.502 | 0.341 | 0.443 | 0.403 | 0.395 | 0.471 | 0.409 |
| NCI-H727 | 0.93 | 0.799 | 1.1 | 0.832 | 0.962 | 0.557 | 0.482 | 0.817 | 0.472 | 0.524 | 1.12 | 1.28 | 1.16 | 1.02 | 1.16 |
| ABC-1 | 1.12 | 1.02 | 1.22 | 0.992 | 1.26 |  | 0.379 | 0.83 | 0.455 | 0.539 | 1.32 | 1.06 | 1.11 | 1.26 | 1.01 |
| NCI-H23 | 0.457 | 0.527 | 0.71 | 0.43 | 0.488 | 0.743 | 0.617 | 0.696 | 0.496 | 0.522 | 0.759 | 0.476 | 0.309 | 0.285 | 0.139 |
| SK-LU-1 | 1.01 | 1 | 1.08 | 0.847 | 0.584 | 0.413 | 0.36 | 0.393 | 0.295 | 0.291 | 0.918 | 0.687 | 0.783 | 0.496 | 0.305 |
| NCI-H2170 | 1.14 | 1.23 | 1.19 | 1.05 | 1.1 | 0.659 | 0.68 | 0.713 | 0.567 | 0.667 | 0.923 | 0.687 | 0.872 | 0.805 | 0.635 |
| LOU-NH91 | 0.626 | 0.723 | 0.788 | 0.707 | 0.704 |  | 0.733 | 0.729 | 0.746 | 0.686 | 0.885 | 0.879 | 0.919 | 0.966 | 0.825 |
| NCI-H647 | 1.18 | 1.12 | 1.13 | 0.852 | 0.524 | 0.73 | 0.706 | 0.797 | 0.531 | 0.595 | 0.556 | 0.689 | 0.646 | 0.469 | 0.287 |
| LXF-289 | 0.777 | 0.805 | 0.781 | 0.757 | 0.737 | 0.776 | 0.79 | 0.789 | 0.698 | 0.624 | 0.78 | 0.843 | 0.827 | 0.812 | 0.786 |
| PC-3 [JPC-3] | 0.886 | 1 | 0.998 | 1.01 | 0.874 | 0.756 | 0.702 | 0.811 | 0.704 | 0.672 | 0.815 | 0.734 | 0.858 | 0.883 | 0.664 |
| NCI-H2009 | 1.1 | 0.996 | 1.12 | 0.769 | 0.832 | 0.668 | 0.609 | 0.789 | 0.54 | 0.281 | 0.771 | 0.668 | 0.699 | 0.76 | 0.683 |
| LK-2 |  | 0.224 | 0.243 | 0.283 | 0.239 | 0.222 | 0.187 | 0.18 | 0.182 | 0.214 | 0.335 | 0.253 | 0.416 | 0.408 | 0.397 |
| NCI-H1993 | 0.785 | 0.801 | 0.873 | 0.61 | 0.935 | 0.535 | 0.549 | 0.538 | 0.584 | 0.541 | 0.759 | 0.657 | 0.966 | 0.762 | 0.548 |
| HCC-15 | 0.774 | 0.839 | 0.883 | 0.794 | 0.693 | 0.569 | 0.494 | 0.751 | 0.522 | 0.541 | 0.954 | 0.868 | 0.901 | 0.943 | 0.934 |
| NCI-H322M | 0.9 | 1.27 | 1.01 | 1.1 | 1.09 | 0.506 | 0.538 | 0.704 | 0.594 | 0.63 | 0.903 | 0.831 | 0.899 | 0.818 | 0.499 |
